In patent US9321760B2 (Merck Patent GmbH, priority 2011, dated 2016):

Target: P70S6K (T412E mutant) (Homo sapiens (Human), UniProt P23443, T412E)
Assay: P70S6K enzyme assay
Type: biochemical
Conditions: 3 nM P70S6K T412E mutant, 24 μM ATP, 1 μM FITC-AHA-AKRRRLSSLRA-OH substrate peptide, 90 min at 25° C.
Summary of the method: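 P70S6K T412E mutant (3 nM) with 24 μM ATP and 1 μM FITC-labelled S6-derived peptide in Hepes pH 7.5, MgCl2, DTT, Brij buffer; 90 min at 25° C, stopped with EDTA. Phosphorylated product and substrate peptides separated by microfluidic mobility shift; IC50 values derived.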

Sequence of P70S6K (T412E mutant) (P23443 whole entry T412E): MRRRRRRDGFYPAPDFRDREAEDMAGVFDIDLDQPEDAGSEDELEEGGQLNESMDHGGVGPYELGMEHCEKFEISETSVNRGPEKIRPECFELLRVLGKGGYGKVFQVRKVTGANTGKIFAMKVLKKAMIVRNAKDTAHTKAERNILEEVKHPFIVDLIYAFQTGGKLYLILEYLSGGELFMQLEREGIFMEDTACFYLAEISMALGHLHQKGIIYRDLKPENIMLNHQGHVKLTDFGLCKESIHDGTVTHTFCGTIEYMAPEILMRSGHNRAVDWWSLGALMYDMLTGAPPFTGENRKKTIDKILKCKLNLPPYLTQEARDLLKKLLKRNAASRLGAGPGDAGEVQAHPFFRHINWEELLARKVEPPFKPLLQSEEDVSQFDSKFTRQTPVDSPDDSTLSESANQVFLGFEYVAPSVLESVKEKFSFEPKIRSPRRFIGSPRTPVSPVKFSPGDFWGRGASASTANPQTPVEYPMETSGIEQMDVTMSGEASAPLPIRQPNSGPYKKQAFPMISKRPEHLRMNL

IC50 [nM] | Structure (SMILES)
> 100000 | Nc1ncnc(N2CCN(C(CN3CCC3)c3ccc4c(c3)CCCC4)CC2)c1-c1ccc(N2CCNCC2)nc1 (centres unmarked) [Example 115, 6-{4-[2-Azetidin-1-yl-1-(5,6,7,8-tetrahydro-naphthalen-2-yl)-ethyl]-piperazin-1-yl}-5-(6-piperazin-1-yl-pyridin-3-yl)-pyrimidin-4-ylamine]
66 | Nc1ncnc(N2CCC(Cc3ccc(C(F)(F)F)cc3)CC2)c1-c1ccc(F)cc1 [Example 48, 5-(4-Fluorophenyl)-6{4-(4-trifluoromethylbenzyl)-piperidin-1-yl}pyrimidin-4-amine]
